# How the values were obtained:
# [1] = target: T1, kinase domain protein of RC kinase (Homo sapiens, UniProt Q56UN5); test: Enzymatic assay for kinase inhibitory activity (Crebtide substrate, LANCE readout), kinase domain protein; format: biochemical; details: test compound 1 μM, ATP 1 μM, Crebtide 50 nM
# T1 sequence (Q56UN5 1061-1324 limits assumed): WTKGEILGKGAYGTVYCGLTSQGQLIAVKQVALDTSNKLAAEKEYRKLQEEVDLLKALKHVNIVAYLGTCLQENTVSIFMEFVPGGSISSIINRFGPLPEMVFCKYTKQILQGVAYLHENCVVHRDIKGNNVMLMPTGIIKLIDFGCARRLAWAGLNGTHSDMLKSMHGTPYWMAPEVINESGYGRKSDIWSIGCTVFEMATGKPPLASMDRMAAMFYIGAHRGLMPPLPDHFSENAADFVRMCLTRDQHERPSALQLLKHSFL
# Procedure, shortened: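 Kinase domain (1 mg/mL final) with 50 nM Crebtide and 1 μM ATP in MAPK buffer (50 mM HEPES, 10 mM MgCl2, 2 mM DTT, 0.01% Tween 20), 45 min RT. Compound at 1 μM or 1×IC50, duplicate. EDTA/anti-Crebtide stop, 45 min development, LANCE 665/615 nm; % inhibition at 1 μM binned A–D.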
inhibition at 1 µM [1],melting point,Structure (SMILES)
≥ 50%,216 to 220 °C,NC(=O)c1c(Nc2ccc(-c3cc(CO)c4ccccc4n3)cc2)n[nH]c1NCc1ccc(O)cc1 [Compound D125]
≥ 50%,184 to 188 °C,"CN(C)c1ccc(Nc2n[nH]c(NCc3ccc(O)cc3)c2C(N)=O)cc1 [Compound D126, 3-((4-(dimethylamino)phenyl)amino)-5-((4-hydroxybenzyl)amino)-1H-pyrazole-4-carboxamide]"
≥ 50%,216 to 220 °C,NC(=O)c1c(Nc2ccc(NC(=O)c3cccc(F)c3)cc2)n[nH]c1NCc1ccc(O)cc1 [Compound D131]
≥ 50%,227 to 231 °C,"NC(=O)c1c(Nc2ccc(NC(=O)c3ccc(F)cc3)cc2)n[nH]c1NCc1ccc(O)cc1 [Compound D132, 3-((4-(4-fluorobenzamido)phenyl)amino)-5-((4-hydroxybenzyl)amino)-1H-pyrazole-4-carboxamide]"
≥ 50%,222 to 226 °C,CC(C)(C)OC(=O)Nc1ccc(Nc2n[nH]c(NCc3ccc(O)cc3)c2C(N)=O)cc1 [Compound D135]
20 to 50%,200 to 204 °C,"CC(C)c1ccc(Nc2n[nH]c(NCc3ccc(O)cc3)c2C(N)=O)cc1 [Compound D137, 5-((4-hydroxybenzyl)amino)-3-((4-isopropylphenyl)amino)-1H-pyrazole-4-carboxamide]"
20 to 50%,228 to 232 °C,"NC(=O)c1c(Nc2ccc(NC(=O)c3sc4cc(F)ccc4c3Cl)cc2)n[nH]c1NCc1ccc(O)cc1 [Compound D141, 3-((4-(3-chloro-6-fluorobenzo[b]thiophene-2-carboxamido)phenyl)amino)-5-((4-hydroxybenzyl)amino)-1H-pyrazole-4-carboxamide]"
≥ 50%,208 to 211 °C,"COc1ccccc1C(=O)Nc1ccc(Nc2n[nH]c(NCc3ccc(O)cc3)c2C(N)=O)cc1 [Compound D143, 5-((4-hydroxybenzyl)amino)-3-((4-(2-methoxybenzamido)phenyl)amino)-1H-pyrazole-4-carboxamide]"
≥ 50%,229 to 233 °C,"NC(=O)c1c(Nc2cccnc2)n[nH]c1NCc1ccc(O)cc1 [Compound D150, 5-((4-hydroxybenzyl)amino)-3-(pyridin-3-ylamino)-1H-pyrazole-4-carboxamide]"
≥ 50%,203 to 209 °C,"NC(=O)c1c(Nc2ccc(Cl)c(Cl)c2)n[nH]c1NCc1ccc(O)cc1 [Compound D158, 3-((3,4-dichlorophenyl)amino)-5-((4-hydroxybenzyl)amino)-1H-pyrazole-4-carboxamide]"
≥ 50%,178 to 183 °C,"NC(=O)c1c(Nc2ccc(F)c(Cl)c2)n[nH]c1NCc1ccc(O)cc1 [Compound D159, 3-((3-chloro-4-fluorophenyl)amino)-5-((4-hydroxybenzyl)amino)-1H-pyrazole-4-carboxamide]"
20 to 50%,199 to 204 °C,"NC(=O)c1c(Nc2ccc(Br)c(Cl)c2)n[nH]c1NCc1ccc(O)cc1 [Compound D160, 3-((4-bromo-3-chlorophenyl)amino)-5-((4-hydroxybenzyl)amino)-1H-pyrazole-4-carboxamide]"
≥ 50%,206 to 210 °C,"NC(=O)c1c(Nc2ccc(-c3ccccc3)cc2)n[nH]c1NCc1ccc(O)cc1 [Compound D161, 3-([1,1′-biphenyl]-4-ylamino)-5-((4-hydroxybenzyl)amino)-1H-pyrazole-4-carboxamide]"
≥ 50%,176 to 180 °C,"COc1ccc(Nc2n[nH]c(NCc3ccc(O)cc3)c2C(N)=O)cc1 [Compound D162, 5-((4-hydroxybenzyl)amino)-3-((4-methoxyphenyl)amino)-1H-pyrazole-4-carboxamide]"
≥ 50%,204 to 207 °C,NC(=O)c1c(Nc2ccc(F)cc2)n[nH]c1NCc1ccc(O)cc1 [Compound D163]
≥ 50%,218 to 222 °C,"CC(C)(C)c1ccc(Nc2n[nH]c(NCc3ccc(O)cc3)c2C(N)=O)cc1 [Compound D164, 3-((4-(tert-butyl)phenyl)amino)-5-((4-hydroxybenzyl)amino)-1H-pyrazole-4-carboxamide]"
≥ 50%,285 to 290 °C,"NC(=O)c1c(Nc2ccc(C(=O)O)cc2)n[nH]c1NCc1ccc(O)cc1 [Compound D165, 4-((4-carbamoyl-5-((4-hydroxybenzyl)amino)-1H-pyrazol-3-yl)amino)benzoic acid]"

# Second part, the compound before the results:
Structure (SMILES),inhibition at 1 µM [1],melting point
"CS(=O)(=O)c1ccc(CNc2n[nH]c(NCc3ccc(O)cc3)c2C(N)=O)cc1 [Compound D113, 5-((4-hydroxybenzyl)amino)-3-((4-(methylsulfonyl)benzyl)amino)-1H-pyrazole-4-carboxamide]",5 to 20%,263 to 267 °C
NC(=O)c1c(NCc2c(F)cccc2F)n[nH]c1NCc1ccc(O)cc1 [Compound D114],≤ 5%,189 to 191 °C
NC(=O)c1c(NCc2c(F)cccc2Cl)n[nH]c1NCc1ccc(O)cc1 [Compound D115],5 to 20%,215 to 218 °C
CN1CCN(c2ccc(Nc3n[nH]c(NCc4ccc(O)cc4)c3C(N)=O)cc2Cl)CC1 [Compound D116],≥ 50%,230 to 236 °C
NC(=O)c1c(Nc2ccc(N3CCOCC3)nc2)n[nH]c1NCc1ccc(O)cc1 [Compound D118],≥ 50%,199 to 203 °C
CC1CCN(C2CCN(c3ccc(Nc4n[nH]c(NCc5ccc(O)cc5)c4C(N)=O)cn3)CC2)CC1 [Compound D119],≥ 50%,203 to 206 °C
NC(=O)c1c(Nc2ccc(N3CCC(N4CCCC4)CC3)cc2)n[nH]c1NCc1ccc(O)cc1 [Compound D121],≥ 50%,241 to 244 °C
NC(=O)c1c(NCc2ccc(Cl)c(F)c2)n[nH]c1NCc1ccc(O)cc1 [Compound D122],5 to 20%,204 to 207 °C
NC(=O)c1c(Nc2ccc(N3CCN(c4ncccn4)CC3)cc2)n[nH]c1NCc1ccc(O)cc1 [Compound D124],≥ 50%,219 to 227 °C
"COc1ccc(CNc2[nH]nc(Nc3cccnc3)c2C(N)=O)cc1 [Compound D151, 5-((4-methoxybenzyl)amino)-3-(pyridin-3-ylamino)-1H-pyrazole-4-carboxamide]",20 to 50%,218 to 222 °C
COc1cccc(CNc2[nH]nc(Nc3cccnc3)c2C(N)=O)c1 [Compound D152],20 to 50%,226 to 230 °C
"NC(=O)c1c(Nc2cccnc2)n[nH]c1NCc1ccc(Cl)cc1 [Compound D154, 5-((4-chlorobenzyl)amino)-3-(pyridin-3-ylamino)-1H-pyrazole-4-carboxamide]",5 to 20%,228 to 231 °C
"NC(=O)c1c(Nc2cccnc2)n[nH]c1NCc1ccccc1 [Compound D155, 5-(benzylamino)-3-(pyridin-3-ylamino)-1H-pyrazole-4-carboxamide]",5 to 20%,228 to 231 °C
"COc1ccccc1CNc1[nH]nc(Nc2cccc(Cl)c2)c1C(N)=O [Compound D157, 3-((3-chlorophenyl)amino)-5-((2-methoxybenzyl)amino)-1H-pyrazole-4-carboxamide]",5 to 20%,225 to 227 °C
